Laboratory results as given in patent US20240309004A1, “SELECTIVE CYCLIN-DEPENDENT KINASE INHIBITORS AND METHODS OF THERAPEUTIC USE THEREOF” (ViroKyne Therapeutics, LLC, priority 2021, published 2024).
Where two headings read alike, the source gives them in different places.

Assays:
[1] = Cytotoxicity concurrent with Adenovirus primary assay; type: cell-based; conditions: human
[2] = test system: Epstein-Barr virus Akata strain; assay: Epstein-Barr primary assay, Akata strain, Akata cells; type: cell-based
[3] = Cytotoxicity concurrent with EBV primary assay; conditions: human, Akata cells without virus induction
[4] = Cytotoxicity concurrent with HCMV AD169 primary assay; type: cell-based, human; conditions: human, CC50
[5] = Cytotoxicity concurrent with VZV Ellen primary assay; type: cell-based; conditions: human
Procedure: (§1) Assays were performed in monolayers as described. […] Toxicity was measured using CTG as above. […] Toxicity was measured using CTG as above.

[6] = Cytotoxicity concurrent with HSV1 E-377 primary assay; type: cell-based; conditions: human
Procedure: as §1

HSV2 strain G = assay: HSV2 primary assay, strain G, HFF cells; type: cell-based, herpes simplex virus 2
Procedure: as §1
(§2) Monolayers of HFF cells were prepared in six-well plates and incubated at 37° C. for 2 d to allow the cells to reach confluency. Media was then aspirated from the wells and 0.2 mL of virus-containing solution was added to each of three wells to yield 20-30 plaques in each well. The virus was allowed to adsorb to the cells for 1 h and the plates were agitated every 15 minutes. Compounds were diluted in assay media consisting of MEM with Earl's salts supplemented with 2% FBS, glutamine, penicillin, and gentamycin. Diluted drug was added to duplicate wells and the plates were incubated for various times, depending on the virus used. For HSV-1 and -2, the monolayers were then stained with 1% crystal violet in 20% methanol and the unbound dye removed by washing with dH20. For all other assays, the cell monolayer was stained with 1% Neutral Red solution for 4-6 h then the stain was aspirated and the cells were washed with PBS.

[7] = Cytotoxicity concurrent with HSV2 primary assay; type: cell-based; conditions: human
Procedure: as §1

[8] = test system: Adenovirus Adenoid75 strain; assay: Adenovirus primary assay, Adenoid75 strain, HFF cells; type: cell-based; conditions: unidentified adenovirus
HCMV strain AD169 = assay: HCMV primary assay (CPE), strain AD169, HFF cells; type: cell-based, Human Cytomegalovirus
Procedure: The antiviral activity of the compound against HCMV in the described Primary assay was measured by treating primary Human foreskin fibroblast (HFF) cells infected with HCMV with a range of compound concentrations—description of methods for this assay can be found in section 1.3.2.1. […] . Additional tested assay parameters in this Primary assay can be found in Table 3.2.1 and include EC90, S150, and S190 values—descriptions of those data points can be found in section 3.2.1.

HSV1 strain E-377 = assay: HSV1 primary assay, strain E-377, HFF cells; type: cell-based, Herpes Simplex Virus 1
Procedure: as §1, §2

VZV strain Ellen = assay: VZV primary assay, strain Ellen, HFF cells; type: cell-based, Varicella Zoster Virus
Procedure: as §1, §2

[9] = Metabolic stability in mice liver microsomes; conditions: mice liver microsomes, 1 μM compound, 1 mM NADPH, 60 min
Procedure: Potassium phosphate buffer (Kphos) was prepared by adding 0.647 g potassium phosphate monobasic (KH2PO4) and 3.527 g potassium phosphate dibasic (K2HPO4) to 400 mL of Milli-Q water. pH of the buffer was adjusted to 7.4 and volume was made up to 500 mL.
Stock solutions of the test compounds were prepared in DMSO at a concentration of 1 mM.
To this microsomal mix 1.42 μL (1 mM) of test compound and positive control were spiked, from this mix 70 μL was transferred to 96 well plate and pre-incubated at 37° C. for 5 min. […] The plates were centrifuged at 4000 RPM for 15 min and 100 μL aliquots were submitted for analysis by LC-MS/MS.
Samples were monitored for parent compound disappearance in MRM mode using LC-MS/MS. The LC-MS/MS conditions and MRM chromatogram will be provided as per client request.
The peak area ratios of analyte versus internal standard were used to calculate the % remaining at the end of 60 minutes in presence NADPH.

[10] = human gammaherpesvirus 4, Epstein-Barr primary assay, Akata strain, Akata cells, read-out: EC50
[11] = human gammaherpesvirus 4, Epstein-Barr primary assay, Akata strain, Akata cells, read-out: EC90
[12] = Human alphaherpesvirus 2, HSV2 primary assay, strain G, HFF cells, read-out: EC50
[13] = Human alphaherpesvirus 2, HSV2 primary assay, strain G, HFF cells, read-out: EC90
[14] = Adenovirus primary assay, HFF cells, Adenoid75 strain, read-out: EC50
[15] = Adenovirus primary assay, HFF cells, Adenoid75 strain, read-out: EC90
[16] = Human betaherpesvirus 5, HCMV primary assay, virus strain AD169, HFF cells, read-out: EC50
[17] = Human betaherpesvirus 5, HCMV primary assay, virus strain AD169, HFF cells, read-out: EC90
[18] = Human alphaherpesvirus 1, HSV1 primary assay, strain E-377, HFF cells, read-out: EC50
[19] = Human alphaherpesvirus 1, HSV1 primary assay, strain E-377, HFF cells, read-out: EC90
[20] = Human alphaherpesvirus 3, VZV primary assay, strain Ellen, cell line HFF, read-out: EC50
[21] = Human alphaherpesvirus 3, VZV primary assay, strain Ellen, cell line HFF, read-out: EC90
[22] = human gammaherpesvirus 4, Akata
[23] = Human betaherpesvirus 5, AD169, HFF

## NCC1CCC(Nc2cc3c4ccc(F)cc4nn3cn2)CC1 (stereo not drawn) [VKT-002]
[1]
  CC50: 21.2 µM
[2]; [10]
  EC50: 1.78 µM
[2]; [11]
  EC90: 2 µM
[3]
  CC50 at 72 h: 6.69 µM
[4]
  CC50: 7.42 µM
[5]
  CC50: 7.9 µM
[6]
  CC50: 20.8 µM
HSV2 strain G; [12]
  EC50: 10 µM
HSV2 strain G; [13]
  EC90: 10 µM
[7]
  CC50: 24.4 µM
[8]; [14]
  EC50: 4.44 µM
[8]; [15]
  EC90: 10 µM
HCMV strain AD169; [16]
  EC50: 2 µM
HCMV strain AD169; [17]
  EC90: 2 µM
HSV1 strain E-377; [18]
  EC50: 10 µM
HSV1 strain E-377; [19]
  EC90: 10 µM
VZV strain Ellen; [20]
  EC50: 2 µM
VZV strain Ellen; [21]
  EC90: 2 µM

## CN(C(=O)OC(C)(C)C)C1CCC(Nc2cc3c4ccc(F)cc4nn3cn2)CC1 (stereo not drawn) [VKT-005]
[1]
  CC50: 3.81 µM
[2]; [10]
  EC50: 10 µM
[2]; [11]
  EC90: 10 µM
[3]
  CC50 at 72 h: 39.4 µM
[4]
  CC50: 1.48 µM
[5]
  CC50: 1.48 µM
[6]
  CC50: 16 µM
HSV2 strain G; [12]
  EC50: 2 µM
HSV2 strain G; [13]
  EC90: 2 µM
[7]
  CC50: 7.94 µM
[8]; [14]
  EC50: 2 µM
[8]; [15]
  EC90: 2 µM
HCMV strain AD169; [16]
  EC50: 0.4 µM
HCMV strain AD169; [17]
  EC90: 0.4 µM
HSV1 strain E-377; [18]
  EC50: 10 µM
HSV1 strain E-377; [19]
  EC90: 10 µM
VZV strain Ellen; [20]
  EC50: 0.4 µM
VZV strain Ellen; [21]
  EC90: 0.4 µM

## CNC1CCC(Nc2cc3c4ccc(F)cc4nn3cn2)CC1 (stereo not drawn) [VKT-006]
[1]
  CC50: 30.5 µM
[2]; [10]
  EC50: 8.32 µM
[2]; [11]
  EC90: 10 µM
[3]
  CC50 at 72 h: 33.5 µM
[4]
  CC50: 32.5 µM
[5]
  CC50: 27.2 µM
[6]
  CC50: 38.5 µM
HSV2 strain G; [12]
  EC50: 10 µM
HSV2 strain G; [13]
  EC90: 10 µM
[7]
  CC50: 42.8 µM
[8]; [14]
  EC50: 10 µM
[8]; [15]
  EC90: 10 µM
HCMV strain AD169; [16]
  EC50: 10 µM
HCMV strain AD169; [17]
  EC90: 10 µM
HSV1 strain E-377; [18]
  EC50: 10 µM
HSV1 strain E-377; [19]
  EC90: 10 µM
VZV strain Ellen; [20]
  EC50: 10 µM
VZV strain Ellen; [21]
  EC90: 10 µM

## CN(C)C1CCC(Nc2cc3c4ccc(F)cc4nn3cn2)CC1 (stereo not drawn) [VKT-007]
[9]
  % Remaining at 60 min: 54%
[6]
  CC50: 16.1 µM
HSV1 strain E-377; [18]
  EC50: 10 µM
HSV1 strain E-377; [19]
  EC90: 10 µM

## CN(C)CC1CCC(Nc2cc3c4ccc(F)cc4nn3cn2)CC1 (stereo not drawn) [VKT-008]
[1]
  CC50: 48.6 µM
[2]; [10]
  EC50: 8.16 µM
[2]; [11]
  EC90: 44 µM
[3]
  CC50 at 72 h: 50 µM
[4]
  CC50: 38.8 µM
[5]
  CC50: 37.2 µM
[6]
  CC50: 50 µM
HSV2 strain G; [12]
  EC50: 50 µM
HSV2 strain G; [13]
  EC90: 50 µM
[7]
  CC50: 50 µM
[8]; [14]
  EC50: 10 µM
[8]; [15]
  EC90: 10 µM
HCMV strain AD169; [16]
  EC50: 10 µM
HCMV strain AD169; [17]
  EC90: 10 µM
HSV1 strain E-377; [18]
  EC50: 50 µM
HSV1 strain E-377; [19]
  EC90: 50 µM
VZV strain Ellen; [20]
  EC50: 10 µM
VZV strain Ellen; [21]
  EC90: 10 µM

## Fc1ccc2c(c1)nn1cnc(NC3CCSCC3)cc21 [VKT-017]
[1]
  CC50: 46.7 µM
[2]; [10]
  EC50: 23.4 µM
[2]; [11]
  EC90: 41.5 µM
[3]
  CC50 at 72 h: 50 µM
[4]
  CC50: 21.4 µM
[5]
  CC50: 37.1 µM
[6]
  CC50: 50 µM
HSV2 strain G; [12]
  EC50: 50 µM
HSV2 strain G; [13]
  EC90: 50 µM
[7]
  CC50: 50 µM
[8]; [14]
  EC50: 10 µM
[8]; [15]
  EC90: 10 µM
HCMV strain AD169; [16]
  EC50: 10 µM
HCMV strain AD169; [17]
  EC90: 10 µM
HSV1 strain E-377; [18]
  EC50: 50 µM
HSV1 strain E-377; [19]
  EC90: 50 µM
VZV strain Ellen; [20]
  EC50: 10 µM
VZV strain Ellen; [21]
  EC90: 10 µM

## CN1CCC(Nc2cc3c4ccc(F)cc4nn3cn2)CC1 [VKT-023]
[1]
  CC50: 50 µM
[2]; [22]
  EC50: 29.5 µM
  EC90: 50 µM
[3]
  CC50 at 72 h: 50 µM
[4]
  CC50: 46 µM
[5]
  CC50: 44.7 µM
[6]
  CC50: 50 µM
HSV2 strain G; Human alphaherpesvirus 2, HFF
  EC50: 50 µM
  EC90: 50 µM
[7]
  CC50: 50 µM
[8]; HFF
  EC50: 50 µM
  EC90: 50 µM
HCMV strain AD169; [23]
  EC50: 10 µM
  EC90: 10 µM
HSV1 strain E-377; Human alphaherpesvirus 1, HFF
  EC50: 50 µM
  EC90: 50 µM
VZV strain Ellen; Human alphaherpesvirus 3, HFF
  EC50: 10 µM
  EC90: 10 µM

## N[C@@H]1CC[C@H](Nc2cc3c4ccc(F)cc4nn3cn2)C1 [VKT-034]
[9]
  % Remaining at 60 min: 81%
[6]
  CC50: 18.7 µM
HSV1 strain E-377; [18]
  EC50: 10 µM
HSV1 strain E-377; [19]
  EC90: 10 µM

## CC(C)(C)OC(=O)N[C@H]1CCC(Nc2cc3c4ccc(F)cc4nn3cn2)C1 (stereo partly drawn) [VKT-035]
[1]
  CC50: 17.5 µM
[2]; [10]
  EC50: 10 µM
[2]; [11]
  EC90: 10 µM
[3]
  CC50 at 72 h: 31.9 µM
[4]
  CC50: 8.14 µM
[5]
  CC50: 7.6 µM
[6]
  CC50: 15.9 µM
HSV2 strain G; [12]
  EC50: 10 µM
HSV2 strain G; [13]
  EC90: 10 µM
[7]
  CC50: 17.7 µM
[8]; [14]
  EC50: 10 µM
[8]; [15]
  EC90: 10 µM
HCMV strain AD169; [16]
  EC50: 2 µM
HCMV strain AD169; [17]
  EC90: 2 µM
HSV1 strain E-377; [18]
  EC50: 10 µM
HSV1 strain E-377; [19]
  EC90: 10 µM
VZV strain Ellen; [20]
  EC50: 2 µM
VZV strain Ellen; [21]
  EC90: 2 µM

## N[C@H]1CC[C@H](Nc2cc3c4ccc(F)cc4nn3cn2)C1 [VKT-036]
[9]
  % Remaining at 60 min: 82%
[6]
  CC50: 29.4 µM
HSV1 strain E-377; [18]
  EC50: 10 µM
HSV1 strain E-377; [19]
  EC90: 10 µM
